Results as given in US20230219904A1 (SYNGENTA CROP PROTECTION AG, priority 2020, published 2023).

Experiments:
Format in all cases: in vivo
Conditions in all cases: evaluated after 13 days
[1] = tested on: Abutilon theophrasti (ABUTH); assay: Pre-emergence herbicidal glasshouse test (Table B1)
Summary of the method: (§1)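 Plants were grown in standard soil under controlled glasshouse conditions (24/16° C, 14 hours light, 65% humidity) and treated by spraying at 500 g/h unless otherwise indicated. Percentage damage was evaluated after 13 days and expressed on a five-point scale.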

[2] = tested on: Amaranthus retoflexus (AMARE); assay: as above
Summary of the method: as §1

[3] = tested on: Echinochloa crus-galh (ECHCG); assay: as above
Summary of the method: as §1

[4] = tested on: Ipomoea hederacea (IPOHE); assay: as above
Summary of the method: as §1

Setaria faberi (SETFA) [5] = assay: as above
Summary of the method: as §1

[6] = tested on: Abutilon theophrasti (ABUTH); assay: Post-emergence herbicidal glasshouse test (Table B1)
Summary of the method: as §1

[7] = tested on: Amaranthus retoflexus (AMARE); assay: as above
Summary of the method: as §1

[8] = tested on: Echinochloa crus-galh (ECHCG); assay: as above
Summary of the method: as §1

[9] = tested on: Ipomoea hederacea (IPOHE); assay: as above
Summary of the method: as §1

Setaria faberi (SETFA) [10] = assay: as above
Summary of the method: as §1

| SMILES | PRE Application ABUTH, percentage damage on five-point scale ([1]; applied at 125 g/ha) | PRE Application AMARE, percentage damage on five-point scale ([2]; applied at 125 g/ha) | PRE Application ECHCG, percentage damage on five-point scale ([3]; applied at 125 g/ha) | PRE Application IPOHE, percentage damage on five-point scale ([4]; applied at 125 g/ha) | PRE Application SETFA, percentage damage on five-point scale (Setaria faberi (SETFA) [5]; applied at 125 g/ha) | POST Application ABUTH, percentage damage on five-point scale ([6]; applied at 125 g/ha) | POST Application AMARE, percentage damage on five-point scale ([7]; applied at 125 g/ha) | POST Application ECHCG, percentage damage on five-point scale ([8]; applied at 125 g/ha) | POST Application IPOHE, percentage damage on five-point scale ([9]; applied at 125 g/ha) | POST Application SETFA, percentage damage on five-point scale (Setaria faberi (SETFA) [10]; applied at 125 g/ha) | PRE Application ABUTH, percentage damage on five-point scale ([1]; applied at 500 g/h) | PRE Application AMARE, percentage damage on five-point scale ([2]; applied at 500 g/h) | PRE Application ECHCG, percentage damage on five-point scale ([3]; applied at 500 g/h) | PRE Application IPOHE, percentage damage on five-point scale ([4]; applied) | PRE Application SETFA, percentage damage on five-point scale (Setaria faberi (SETFA) [5]; applied at 500 g/h) | POST Application ABUTH, percentage damage on five-point scale ([6]; applied at 500 g/h) | POST Application AMARE, percentage damage on five-point scale ([7]; applied at 500 g/h) | POST Application ECHCG, percentage damage on five-point scale ([8]; applied at 500 g/h) | POST Application IPOHE, percentage damage on five-point scale ([9]; applied at 500 g/h) | POST Application SETFA, percentage damage on five-point scale (Setaria faberi (SETFA) [10]; applied at 500 g/h) |
| --- | --- | --- | --- | --- | --- | --- | --- | --- | --- | --- | --- | --- | --- | --- | --- | --- | --- | --- | --- | --- |
| Cn1nnnc1NC(=O)c1ccc(OC(F)F)c(NC(=O)c2ccccn2)c1Cl [Compound 1.108] | 4 (4=60-79%) | 5 (5=80-100%) | 2 (2=20-39%) | 2 (2=20-39%) | 3 (3=40-59%) | 4 (4=60-79%) | 5 (5=80-100%) | 5 (5=80-100%) | 4 (4=60-79%) | 4 (4=60-79%) |  |  |  |  |  |  |  |  |  |  |
| CCn1nnnc1NC(=O)c1ccc(OC(F)(F)F)c(NC(=O)C2CCC2)c1Cl [Compound 1.111] |  |  |  |  |  |  |  |  |  |  | 4 (4=60-79%) | 5 (5=80-100%) | 4 (4=60-79%) | 1 (1=0-19%) | 1 (1=0-19%) | 5 (5=80-100%) | 5 (5=80-100%) | 5 (5=80-100%) | 5 (5=80-100%) | 1 (1=0-19%) |
| Cn1nnnc1NC(=O)c1ccc(OC(F)(F)F)c(NC(=O)C2CCC2)c1Cl [Compound 1.112] |  |  |  |  |  |  |  |  |  |  | 4 (4=60-79%) | 5 (5=80-100%) | 5 (5=80-100%) | 1 (1=0-19%) | 1 (1=0-19%) | 5 (5=80-100%) | 5 (5=80-100%) | 5 (5=80-100%) | 5 (5=80-100%) | 5 (5=80-100%) |
| CCn1nnnc1NC(=O)c1ccc(OC(F)(F)F)c(NC(=O)CCOC)c1Cl [Compound 1.113] |  |  |  |  |  |  |  |  |  |  | 5 (5=80-100%) | 5 (5=80-100%) | 5 (5=80-100%) | 1 (1=0-19%) | 2 (2=20-39%) | 5 (5=80-100%) | 5 (5=80-100%) | 5 (5=80-100%) | 5 (5=80-100%) | 5 (5=80-100%) |
| CCCC(=O)Nc1c(OC(F)(F)F)ccc(C(=O)Nc2nnnn2CC)c1Cl [Compound 1.114] |  |  |  |  |  |  |  |  |  |  | 5 (5=80-100%) | 5 (5=80-100%) | 5 (5=80-100%) | 3 (3=40-59%) | 2 (2=20-39%) | 5 (5=80-100%) | 5 (5=80-100%) | 5 (5=80-100%) | 5 (5=80-100%) | 5 (5=80-100%) |
| Cc1nnc(NC(=O)c2ccc(OC(F)(F)F)c(NC(=O)C3CC3)c2Cl)o1 [Compound 1.115] | 4 (4=60-79%) | 4 (4=60-79%) | 5 (5=80-100%) | 2 (2=20-39%) | 4 (4=60-79%) | 4 (4=60-79%) | 3 (3=40-59%) | 4 (4=60-79%) | 4 (4=60-79%) | 4 (4=60-79%) |  |  |  |  |  |  |  |  |  |  |
| CCn1nnnc1NC(=O)c1ccc(OC(F)(F)F)c(NC(=O)COC)c1Cl [Compound 1.116] |  |  |  |  |  |  |  |  |  |  | 5 (5=80-100%) | 5 (5=80-100%) | 3 (3=40-59%) | 1 (1=0-19%) | 1 (1=0-19%) | 5 (5=80-100%) | 5 (5=80-100%) | 5 (5=80-100%) | 5 (5=80-100%) | 5 (5=80-100%) |
